The values below are quoted from earlier work in patent US9867391B2, “Accelerating muscle recovery after immobilization-induced muscle atrophy” (NESTEC S.A., priority 2011, dated 2018).

The structures appear in SMILES notation.

The series relates to muscle protein synthesis. To be noted: Kastanos et al. 2006.

With `CC(C)C[C@H](N)C(=O)O` [leucine], where the note is “leucine added to the diet, young subjects”, the “muscle protein synthesis in young subjects” value was “did not increased muscle protein synthesis”. Besides, for the setting “same leucine supplementation, elderly”, the “muscle protein synthesis in elderly” value is “efficient”.
